Laboratory results published in paper PMC4770307, “New Synthetic Routes to Triazolo-benzodiazepine Analogues: Expanding the Scope of the Bump-and-Hole Approach for Selective Bromo and Extra-Terminal (BET) Bromodomain Inhibition” (Journal of Medicinal Chemistry, 2015).

Key:
[1] = target: T1, Brd2(2) (Homo sapiens, UniProt P25440); assay: Differential scanning fluorimetry (DSF) thermal shift; type: binding; conditions: compound 10 μM (LightCycler480) or 30 μM (Mx3005P), read-out: Thermal stabilization (ΔTm)
T1 construct: first bromodomain (e.g., Brd2(1)) versus second bromodomain (e.g., Brd2(2)); His6 (TEV-cleavable) (N); made in house; host or cells: E. coli BL21(DE3); plasmid a gift of the SGC Oxford
T1 sequence (P25440 344-453 limits assumed): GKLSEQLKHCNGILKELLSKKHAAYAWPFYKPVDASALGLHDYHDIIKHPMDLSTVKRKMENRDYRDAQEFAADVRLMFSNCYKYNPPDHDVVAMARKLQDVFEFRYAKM

[2] = target: T2, Brd2(1) (Homo sapiens, UniProt P25440); assay: as above; type: binding; conditions: compound 10 μM (LightCycler480) or 30 μM (Mx3005P), read-out: Thermal stabilization (ΔTm)
T2 construct: first bromodomain (e.g., Brd2(1)) versus second bromodomain (e.g., Brd2(2)); His6 (TEV-cleavable) (N); made in house; host or cells: E. coli BL21(DE3); plasmid a gift of the SGC Oxford
T2 sequence (P25440 74-180 limits assumed): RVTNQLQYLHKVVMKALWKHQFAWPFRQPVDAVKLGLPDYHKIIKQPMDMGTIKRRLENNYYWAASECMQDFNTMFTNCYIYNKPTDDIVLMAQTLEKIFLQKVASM

[3] = target: T3, Brd2(1)V103A (Homo sapiens, UniProt P25440, V103A); assay: as above; type: binding; conditions: compound 10 μM (LightCycler480) or 30 μM (Mx3005P), read-out: Thermal stabilization (ΔTm)
T3 construct: first bromodomain (e.g., Brd2(1)) versus second bromodomain (e.g., Brd2(2)); His6 (TEV-cleavable) (N); made in house; host or cells: E. coli BL21(DE3)
T3 sequence (P25440 74-180 V103A limits assumed): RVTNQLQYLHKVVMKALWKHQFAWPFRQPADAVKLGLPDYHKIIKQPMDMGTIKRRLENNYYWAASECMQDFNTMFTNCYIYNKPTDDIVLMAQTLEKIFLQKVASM

[4] = target: T4, Brd2(2)V376A (Homo sapiens, UniProt P25440, V376A); assay: as above; type: binding; conditions: compound 10 μM (LightCycler480) or 30 μM (Mx3005P), read-out: Thermal stabilization (ΔTm)
T4 construct: first bromodomain (e.g., Brd2(1)) versus second bromodomain (e.g., Brd2(2)); His6 (TEV-cleavable) (N); made in house; host or cells: E. coli BL21(DE3)
T4 sequence (P25440 344-453 V376A limits assumed): as the sequence (P25440 344-453 limits assumed) above, with V33A counted along it

[5] = target: T5, Brd2(1)W097F (Homo sapiens, UniProt P25440, W97F); assay: as above; type: binding; conditions: compound 10 μM (LightCycler480) or 30 μM (Mx3005P), read-out: Thermal stabilization (ΔTm)
T5 construct: first bromodomain (e.g., Brd2(1)) versus second bromodomain (e.g., Brd2(2)); His6 (TEV-cleavable) (N); made in house; host or cells: E. coli BL21(DE3)
T5 sequence (P25440 74-180 W97F limits assumed): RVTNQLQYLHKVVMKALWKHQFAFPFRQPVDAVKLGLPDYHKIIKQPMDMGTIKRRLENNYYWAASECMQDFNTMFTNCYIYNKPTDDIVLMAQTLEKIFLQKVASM

[6] = target: T6, Brd2(2)W370H (Homo sapiens, UniProt P25440, W370H); assay: as above; type: binding; conditions: compound 10 μM (LightCycler480) or 30 μM (Mx3005P), read-out: Thermal stabilization (ΔTm)
T6 construct: first bromodomain (e.g., Brd2(1)) versus second bromodomain (e.g., Brd2(2)); His6 (TEV-cleavable) (N); made in house; host or cells: E. coli BL21(DE3)
T6 sequence (P25440 344-453 W370H limits assumed): as the sequence (P25440 344-453 limits assumed) above, with W27H counted along it

[7] = target: T7, Brd2(2)W370F (Homo sapiens, UniProt P25440, W370F); assay: as above; type: binding; conditions: compound 10 μM (LightCycler480) or 30 μM (Mx3005P), read-out: Thermal stabilization (ΔTm)
T7 construct: first bromodomain (e.g., Brd2(1)) versus second bromodomain (e.g., Brd2(2)); His6 (TEV-cleavable) (N); made in house; host or cells: E. coli BL21(DE3)
T7 sequence (P25440 344-453 W370F limits assumed): as the sequence (P25440 344-453 limits assumed) above, with W27F counted along it

[8] = target: T8, Brd2(1)W097H (Homo sapiens, UniProt P25440, W97H); assay: as above; type: binding; conditions: compound 10 μM (LightCycler480) or 30 μM (Mx3005P), read-out: Thermal stabilization (ΔTm)
T8 construct: first bromodomain (e.g., Brd2(1)) versus second bromodomain (e.g., Brd2(2)); His6 (TEV-cleavable) (N); made in house; host or cells: E. coli BL21(DE3)
T8 sequence (P25440 74-180 W97H limits assumed): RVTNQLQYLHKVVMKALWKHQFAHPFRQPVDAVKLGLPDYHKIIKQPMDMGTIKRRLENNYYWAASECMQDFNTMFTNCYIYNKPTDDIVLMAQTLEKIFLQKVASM

[9] = target: T9, Brd2(2)L383I (Homo sapiens, UniProt P25440, L383I); assay: as above; type: binding; conditions: compound 10 μM (LightCycler480) or 30 μM (Mx3005P), read-out: Thermal stabilization (ΔTm)
T9 construct: first bromodomain (e.g., Brd2(1)) versus second bromodomain (e.g., Brd2(2)); His6 (TEV-cleavable) (N); made in house; host or cells: E. coli BL21(DE3)
T9 sequence (P25440 344-453 L383I limits assumed): as the sequence (P25440 344-453 limits assumed) above, with L40I counted along it

[10] = test system: WT and mutant Brd2(1) and Brd2(2) proteins; assay: DSF, WT and mutant proteins (statements in words); type: binding; conditions: mutant compared with WT Brd2 proteins
[11] = target: T10, Brd2(1)L110A (Homo sapiens, UniProt P25440, L110A); assay: Differential scanning fluorimetry (DSF) thermal shift; type: binding; conditions: compound 10 μM (LightCycler480) or 30 μM (Mx3005P), read-out: Thermal stabilization (ΔTm)
T10 construct: first bromodomain (e.g., Brd2(1)) versus second bromodomain (e.g., Brd2(2)); His6 (TEV-cleavable) (N); made in house; host or cells: E. coli BL21(DE3)
T10 sequence (P25440 74-180 L110A limits assumed): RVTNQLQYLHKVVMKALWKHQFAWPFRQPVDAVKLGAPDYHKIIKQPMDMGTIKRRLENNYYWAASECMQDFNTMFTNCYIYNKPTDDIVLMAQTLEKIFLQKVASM

[12] = target: T11, Brd2(2)L383A (Homo sapiens, UniProt P25440, L383A); assay: as above; type: binding; conditions: compound 10 μM (LightCycler480) or 30 μM (Mx3005P), read-out: Thermal stabilization (ΔTm)
T11 construct: first bromodomain (e.g., Brd2(1)) versus second bromodomain (e.g., Brd2(2)); His6 (TEV-cleavable) (N); made in house; host or cells: E. coli BL21(DE3)
T11 sequence (P25440 344-453 L383A limits assumed): as the sequence (P25440 344-453 limits assumed) above, with L40A counted along it

[13] = target: T12, Brd2(1)L110I (Homo sapiens, UniProt P25440, L110I); assay: Isothermal titration calorimetry (ITC); type: binding; conditions: ITC at 25 °C
T12 construct: first bromodomain (e.g., Brd2(1)) versus second bromodomain (e.g., Brd2(2)); His6 (TEV-cleavable) (N); made in house; host or cells: E. coli BL21(DE3)
T12 sequence (P25440 74-180 L110I limits assumed): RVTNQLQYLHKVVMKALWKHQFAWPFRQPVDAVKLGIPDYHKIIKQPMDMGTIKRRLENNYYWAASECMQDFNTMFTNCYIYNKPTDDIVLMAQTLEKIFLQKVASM

[14] = target: T1, Brd2(2); assay: Isothermal titration calorimetry (ITC); type: binding
[15] = target: T10, Brd2(1)L110A; assay: Isothermal titration calorimetry (ITC); type: binding; conditions: ITC at 25 °C
[16] = target: T2, Brd2(1); assay: Isothermal titration calorimetry (ITC); type: binding
[17] = target: T9, Brd2(2)L383I; assay: Isothermal titration calorimetry (ITC); type: binding; conditions: ITC at 25 °C
[18] = target: T11, Brd2(2)L383A; assay: Isothermal titration calorimetry (ITC); type: binding; conditions: ITC at 25 °C
[19] = target: T12, Brd2(1)L110I; assay: Differential scanning fluorimetry (DSF) thermal shift; type: binding; conditions: compound 10 μM (LightCycler480) or 30 μM (Mx3005P), read-out: Thermal stabilization (ΔTm)
[20] = test system: leucine/alanine mutant BET bromodomains; design: method as in PMID 25323695; conditions: cited from earlier work
[21] = target: Brd2(2); conditions: reported Kd; cited from earlier work
[22] = test system: Brd2(2); assay: Isothermal titration calorimetry (ITC); type: binding; conditions: Brd2(2) over Brd2(1), from ITC Kd's
[23] = target: Brd4(2) (Homo sapiens, UniProt O60885); assay: Isothermal titration calorimetry (ITC); type: binding; conditions: ITC at 30 °C, […] DMSO
[24] = target: Brd4(1) (Homo sapiens, UniProt O60885); assay: Isothermal titration calorimetry (ITC); type: binding; conditions: ITC at 30 °C, […] DMSO

Compound	ΔTm at 10 µM [1] [°C]	ΔTm at 10 µM [2] [°C]	ΔTm at 10 µM [5] [°C]	ΔTm at 10 µM [6] [°C]	ΔTm at 10 µM [7] [°C]	ΔTm at 10 µM [8] [°C]	also measured
COC(=O)CC1N=C(c2ccc(Cl)cc2)c2cc(OC)cc(C)c2-n2c(C)nnc21 (stereo not drawn) [compound 15]	4 ± 0.1	0.7 ± 0.2	–	–	–	–	ΔTm at 10 µM [3]: 0.5 ± 0.3 °C; ΔTm at 10 µM [4]: 1.2 ± 0.1 °C
COC(=O)CC1N=C(c2ccc(Cl)c(C)c2)c2cc(OC)ccc2-n2c(C)nnc21 (stereo not drawn) [compound 25]	3.2 ± 0.1	1.5 ± 0.2	-0.1	1 ± 0.3	1.5	0.2 ± 0.2	–
COC(=O)[C@@H](C)[C@@H]1N=C(c2ccc(Cl)cc2)c2cc(OC)ccc2-n2c(C)nnc21 [compound 16]	0.2 ± 0.2	-0.3	–	–	–	–	ΔTm at 10 µM [9]: 0.3 ± 0.2 °C; thermal stabilization, in words [10]: did not induce a significant stabilization; ΔTm at 10 µM [11]: 1.6 ± 0.2 °C; ΔTm at 10 µM [12]: 0.8 ± 0.6 °C
COC(=O)[C@H](C)[C@@H]1N=C(c2ccc(Cl)cc2)c2cc(OC)ccc2-n2c(C)nnc21 [ME]	5.6 ± 0.1	3.2 ± 0.2	–	–	–	–	Kd [13]: 260 ± 40 nM; ΔH (binding enthalpy) [13]: –8.5 ± 0.1 kcal/mol; Kd ([14]; ITC at 25 °C): 300 ± 80 nM; ΔH (binding enthalpy) ([14]; ITC at 25 °C): –5.4 ± 0.1 kcal/mol; Kd [15]: 17 ± 4 nM; ΔH (binding enthalpy) [15]: –16.8 ± 0.2 kcal/mol; Kd ([16]; ITC at 25 °C): 1470 ± 180 nM; ΔH (binding enthalpy) ([16]; ITC at 25 °C): –8.6 ± 0.2 kcal/mol; ΔTm at 10 µM [9]: 9.6 ± 0.1 °C; Kd [17]: 27 ± 12 nM; ΔH (binding enthalpy) [17]: –9.8 ± 0.1 kcal/mol; ΔTm at 10 µM [11]: 7.9 ± 0.2 °C; ΔTm at 10 µM [12]: 9.3 ± 0.2 °C; Kd [18]: 22 ± 4 nM; ΔH (binding enthalpy) [18]: –12.6 ± 0.1 kcal/mol; ΔTm at 10 µM [19]: 5.7 ± 0.7 °C
CC[C@@H](C(=O)OC)[C@@H]1N=C(c2ccc(Cl)cc2)c2cc(OC)ccc2-n2c(C)nnc21 [ET (6)]	–	–	–	–	–	–	selectivity for L/A mutants relative to WT BET bromodomains, average ([20]; average across the entire subfamily): 160 fold; affinity for leucine/alanine mutant BET bromodomains ([20]; in words): low nanomolar affinity
CC(=O)NCCCCn1c2c(c3ccccc31)C(=O)NCC2 [olinone]	–	–	–	–	–	–	Kd [21]: > 300000 nM
COC(=O)CC1N=C(c2cc(C)ccc2C)c2cc(OC)ccc2-n2c(C)nnc21 (stereo not drawn) [compound 26]	3.5 ± 0.1	1.8 ± 0.2	0.1 ± 0.2	-0.1	0.6 ± 0.1	-0.4	–
COC(=O)CC1N=C(c2ccc(Cl)cc2C)c2cc(OC)ccc2-n2c(C)nnc21 (stereo not drawn) [compound 24]	6.6 ± 0.2	6.3 ± 0.1	1.4 ± 0.2	1.1 ± 0.2	2.8 ± 0.1	0.9 ± 0.3	–
COC(=O)CC1N=C(c2cccc3[nH]ccc23)c2cc(OC)ccc2-n2c(C)nnc21 (stereo not drawn) [compound 28]	7.7 ± 0.2	6.8 ± 0.6	1.9 ± 0.5	2.7 ± 0.4	5.2 ± 0.1	0.6 ± 0.3	selectivity for the second over the first bromodomain [22]: ca. 20 fold; Kd ([14]; ITC at 30 °C, […] DMSO): 45 nM; Kd ([16]; ITC at 30 °C, […] DMSO): 780 nM; Kd [23]: 50 nM; Kd [24]: 520 nM
COC(=O)CC1N=C(c2cc(Cl)ccc2Cl)c2cc(OC)ccc2-n2c(C)nnc21 (stereo not drawn) [compound 27]	2.5 ± 0.2	1.2 ± 0.2	0	-0.4	0.3	-0.4	–
